Laboratory results reported in PMC10746280, “Bacterial efflux pump modulators prevent bacterial growth in macrophages and under broth conditions that mimic the host environment” (mBio, 2023).

Columns and labels:
RAW 264.7 macrophages = test: SAFIRE macrophage assay: host toxicity (adherent macrophage count, morphology); type: cell-based
Procedure, shortened: (§1)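 RAW 264.7 macrophages infected with S. Typhimurium SL1344 sifB::gfp (MOI ~30), gentamicin 40 µg/mL, then compound from 2 h to 18 h post-infection. Confocal imaging with MitoTracker and DAPI; toxicity as adherent MitoTracker-positive macrophage count, bacterial load as GFP+ macrophage area.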

[1] = system: S. Typhimurium SL1344 (sifB::gfp) in RAW 264.7 macrophages; test: SAFIRE macrophage assay: intracellular bacterial load (GFP signal within macrophages); type: cell-based, Salmonella enterica serotype Typhimurium; conditions: for IC50: Salmonella enterica, TYPHIMURIUM, RAW264.7, read-out: SAFIRE IC50
Procedure, shortened: as §1

[2] = 5 uM, 'Toxic' given instead of a score
[3] = 25 uM, 'Toxic' given instead of a score
[4] = 5 uM compound, n=1, DMSO solvent control = 100
[5] = 25 uM compound, n=1, DMSO solvent control = 100
[6] = 5 uM compound, n=1, DMSO solvent control = 98, rifampicin 2 μg/mL = 65
[7] = 25 uM compound, n=1, DMSO solvent control = 98, rifampicin 2 μg/mL = 65

SMILES	5 uM Avg Cell # Score (RAW 264.7 macrophages; 5 uM)	25 uM Avg Cell # Score (RAW 264.7 macrophages; 25 uM)	5 uM Avg Antibacterial Score [1, 2]	25 uM Avg Antibacterial Score [1, 3]	5 uM Avg Cell # Score (RAW 264.7 macrophages; [4])	25 uM Avg Cell # Score (RAW 264.7 macrophages; [5])	5 uM Avg Antibacterial Score [1, 6]	25 uM Avg Antibacterial Score [1, 7]	Avg Cell # Score (RAW 264.7 macrophages; control, rifampicin 2 μg/mL, DMSO = 100)	Avg Antibact Score ([1]; control, rifampicin 2 μg/mL, DMSO = 98)	IC50 [1] [nM]
COc1ccc(OCC(O)CN2CCC(Nc3ncccn3)CC2)cc1 (stereo not shown) [CU046]	74	173	103	75	–	–	–	–	–	–	–
OC(COc1ccccc1)CN1CCC(Nc2nccc(C(F)(F)F)n2)C1 (stereo not shown) [CU083]	89	95	100	32	–	–	–	–	–	–	–
O=C(CCOc1ccc(Cl)c(Cl)c1)N1CCC(Nc2nccc(C(F)(F)F)n2)C1 (stereo not shown) [CU111]	86	47	106	104	–	–	–	–	–	–	–
OC(COc1ccccc1)CN1CCC(Nc2nccs2)CC1 (stereo not shown) [CU052]	110	165	106	93	–	–	–	–	–	–	–
OC(COc1ccc2c(c1)OCO2)CN1CCC(Nc2nccc(C(F)(F)F)n2)C1 (stereo not shown) [CU099]	77	102	104	25	–	–	–	–	–	–	–
N[C@H]1CC[C@@H](NCC(O)COc2ccc(Cl)c(Cl)c2)CC1 (stereo partly shown) [CU245]	–	–	–	–	122	103	66	16	–	–	–
COc1ccccc1OCC(O)CN1CCC(Nc2nccc(C(F)(F)F)n2)C1 (stereo not shown) [CU095]	88	83	100	43	–	–	–	–	–	–	–
CO[C@H]1/C=C/O[C@@]2(C)Oc3c(C)c(O)c4c(O)c(c(/C=N/N5CCN(C)CC5)c(O)c4c3C2=O)NC(=O)/C(C)=C\C=C\[C@H](C)[C@H](O)[C@@H](C)[C@@H](O)[C@@H](C)[C@H](OC(C)=O)[C@@H]1C [Rifampicin]	–	–	–	–	–	–	–	–	111	65	–
N[C@H]1CC[C@@H](NCC(O)COc2cc(Cl)cc(Cl)c2)CC1 (stereo partly shown) [CU216]	102	22	52	Toxic	–	–	–	–	–	–	–
NC1CCN(CC(O)COc2cccc3ccccc23)CC1 (stereo not shown) [CU215]	106	17	44	Toxic	–	–	–	–	–	–	–
OC(COc1ccc(Cl)c(Cl)c1)CN1C2CCC1COC2 (stereo not shown) [CU222]	108	103	101	72	–	–	–	–	–	–	–
CN(C)C1CCN(CC(O)COc2ccc(Cl)c(Cl)c2)C1 (stereo not shown) [CU142]	104	113	77	47	–	–	–	–	–	–	–
OC(COc1cnsn1)CN1CCC(Nc2nccc(C(F)(F)F)n2)CC1 (stereo not shown) [CU118]	89	124	102	80	–	–	–	–	–	–	–
OC(COc1ccc2c(c1)OCO2)CN1CCC(Nc2nccc(C(F)(F)F)n2)CC1 (stereo not shown) [CU080]	86	91	96	7.4	–	–	–	–	–	–	–
OC(COc1ccc(Cl)cc1)CN1CCC(Nc2nccs2)CC1 (stereo not shown) [CU053]	127	140	101	42	–	–	–	–	–	–	–
O=C(C1CCN(CC(O)COc2ccc(Cl)c(Cl)c2)CC1)N1CCCC1 (stereo not shown) [CU062]	103	145	95	48	–	–	–	–	–	–	–
O[C@H](COc1ccc(Cl)c(Cl)c1)CN1CCC(Nc2nccc(C(F)(F)F)n2)CC1 [CU137]	91	67	5.37	Toxic	–	–	–	–	–	–	–

SMILES	5 uM Avg Cell # Score (RAW 264.7 macrophages; 5 uM)	25 uM Avg Cell # Score (RAW 264.7 macrophages; 25 uM)	5 uM Avg Antibacterial Score [1, 2]	25 uM Avg Antibacterial Score [1, 3]	5 uM Avg Cell # Score (RAW 264.7 macrophages; [4])	25 uM Avg Cell # Score (RAW 264.7 macrophages; [5])	5 uM Avg Antibacterial Score [1, 6]	25 uM Avg Antibacterial Score [1, 7]	Avg Cell # Score (RAW 264.7 macrophages; control, rifampicin 2 μg/mL, DMSO = 100)	Avg Antibact Score ([1]; control, rifampicin 2 μg/mL, DMSO = 98)	IC50 [1] [nM]
N[C@H]1CCN(C[C@@H](O)COc2ccc(Cl)c(Cl)c2)C1 [CU240]	–	–	–	–	118	105	29	10	–	–	9.1
OC(COc1ccccc1)CN1CCC(Nc2nccc(C(F)(F)F)n2)CC1 (stereo not shown) [CU034]	86	57	99	Toxic	–	–	–	–	–	–	–
OC(CN[C@H]1[C@@H]2CNC[C@@H]21)COc1ccc(Cl)c(Cl)c1 (stereo partly shown) [CU236]	–	–	–	–	121	99	53	18	–	–	–
N[C@@H]1CCN(C[C@@H](O)COc2ccc(Cl)c(Cl)c2)C1 [CU239]	–	–	–	–	129	104	25	8	–	–	13.5
CSc1ccc(OCC(O)CN2CCC(Nc3nccc(C(F)(F)F)n3)CC2)cc1 (stereo not shown) [CU147]	121	43	72	Toxic	–	–	–	–	–	–	–
NC1CCN(CC(O)COc2ccc(F)cc2)C1 (stereo not shown) [CU153]	103	131	106	85	–	–	–	–	–	–	–
OC(COc1cccc(Br)c1)CN1CCC(Nc2nccc(C(F)(F)F)n2)CC1 (stereo not shown) [CU107]	90	41	10	Toxic	–	–	–	–	–	–	–
N[C@H]1CC[C@H](NCC(O)COc2cc(Cl)cc(Cl)c2)CC1 (stereo partly shown) [CU217]	106	96	65	16	–	–	–	–	–	–	–
OC(COc1ccc(Cl)c(Cl)c1)CN1CCOC2(CCOCC2)C1 (stereo not shown) [CU027]	58	104	107	95	–	–	–	–	–	–	–
CCOC(=O)c1cccc(OCC(O)CN2CCC(Nc3nccc(C(F)(F)F)n3)CC2)c1 (stereo not shown) [CU104]	98	61	13	Toxic	–	–	–	–	–	–	–
CN(C)C(=O)C1CCN(CC(O)COc2ccc(Cl)c(Cl)c2)CC1 (stereo not shown) [CU058]	85	81	104	72	–	–	–	–	–	–	–
N#Cc1cccc(OCC(O)CN2CCC(Nc3nccc(C(F)(F)F)n3)CC2)c1 (stereo not shown) [CU082]	89	85	100	19	–	–	–	–	–	–	–
N[C@H]1CCN(CC(O)COc2cc(Cl)cc(Cl)c2)C1 (stereo partly shown) [CU204]	93	101	28	8.51	–	–	–	–	–	–	–
OC(COc1ccc(Cl)c(Cl)c1)CN1CCN(C2COC2)CC1 (stereo not shown) [CU181]	100	101	109	94	–	–	–	–	–	–	–
OC(CNC1CCNCC1)COc1ccc(Cl)c(Cl)c1 (stereo not shown) [CU174]	98	97	40	18	–	–	–	–	–	–	–
O=C1CN(CC(O)COc2ccc(Cl)c(Cl)c2)CCN1 (stereo not shown) [CU184]	91	97	103	102	–	–	–	–	–	–	–
NC1CCN(CC(O)COc2ccc(F)cc2F)C1 (stereo not shown) [CU167]	109	113	75	58	–	–	–	–	–	–	–
